Results: PubChem BioAssay (NCI)
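GI50 is the concentration that inhibits growth by half. TGI is the concentration that stops growth completely.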

Columns and labels:
Test in all cases: NCI anticancer screen, dose series, 384-well format
786-0 renal = tested on: 786-0 renal
A498 renal = tested on: A498 renal
A549 NSCLC = tested on: A549 NSCLC
ACHN renal = tested on: ACHN renal
BT-549 breast = tested on: BT-549 breast
CAKI-1 renal = tested on: CAKI-1 renal
CCRF-CEM leukemia = tested on: CCRF-CEM leukemia
COLO 205 colon = tested on: COLO 205 colon
DU-145 prostate = tested on: DU-145 prostate
EKVX NSCLC = tested on: EKVX NSCLC
HCC-2998 colon = tested on: HCC-2998 colon
HCT-116 colon = tested on: HCT-116 colon
HCT-15 colon = tested on: HCT-15 colon
HL-60(TB) leukemia = tested on: HL-60(TB) leukemia
HOP-62 NSCLC = tested on: HOP-62 NSCLC
HOP-92 NSCLC = tested on: HOP-92 NSCLC
HS 578T breast = tested on: HS 578T breast
HT29 colon = tested on: HT29 colon
IGROV1 ovarian = tested on: IGROV1 ovarian
K-562 leukemia = tested on: K-562 leukemia
KM12 colon = tested on: KM12 colon
LOX IMVI melanoma = tested on: LOX IMVI melanoma
M14 melanoma = tested on: M14 melanoma
MALME-3M melanoma = tested on: MALME-3M melanoma
MCF7 breast = tested on: MCF7 breast
MDA-MB-231 breast = tested on: MDA-MB-231 breast
MDA-MB-435 melanoma = tested on: MDA-MB-435 melanoma
MDA-MB-468 breast = tested on: MDA-MB-468 breast
MOLT-4 leukemia = tested on: MOLT-4 leukemia

C[C@H](Nc1ccc2c(c1)OCCn1cc(N3C(=O)OC[C@H]3C(F)F)nc1-2)C(N)=O
GI50 ([…]-0 renal): 40.5 µM | TGI (786-0 renal): > 100 µM | GI50 (A498 renal): 15.2 µM | TGI (A498 renal): > 100 µM | GI50 (A549 NSCLC): 12.7 µM | TGI (A549 NSCLC): > 100 µM | GI50 (ACHN renal): 15.2 µM | TGI (ACHN renal): > 100 µM | GI50 (BT-549 breast): 14.5 µM | TGI (BT-549 breast): > 100 µM | GI50 (CAKI-1 renal): 3.11 µM | TGI (CAKI-1 renal): 46.3 µM | GI50 (CCRF-CEM leukemia): 5.71 µM | TGI (CCRF-CEM leukemia): > 100 µM | GI50 (COLO 205 colon): 987 nM | TGI (COLO 205 colon): > 100 µM | GI50 (DU-145 prostate): 18 µM | TGI (DU-145 prostate): > 100 µM | GI50 (EKVX NSCLC): 2990 nM | TGI (EKVX NSCLC): 46.7 µM | GI50 (HCC-2998 colon): 5.68 µM | TGI (HCC-2998 colon): > 100 µM | GI50 (HCT-116 colon): 25.9 µM | TGI (HCT-116 colon): > 100 µM | GI50 (HCT-15 colon): 730 nM | TGI (HCT-15 colon): > 100 µM | GI50 (HL-60(TB) leukemia): 156 nM | TGI (HL-60(TB) leukemia): 3.3 µM | GI50 (HOP-62 NSCLC): 34.6 µM | TGI (HOP-62 NSCLC): > 100 µM | GI50 (HOP-92 NSCLC): 2200 nM | TGI (HOP-92 NSCLC): > 100 µM | GI50 (HS 578T breast): 6.24 µM | TGI (HS 578T breast): 48.4 µM | GI50 (HT29 colon): 289 nM | TGI (HT29 colon): > 100 µM | GI50 (IGROV1 ovarian): 19.5 nM | TGI (IGROV1 ovarian): 141 nM | GI50 (K-562 leukemia): > 100 µM | TGI (K-562 leukemia): > 100 µM | GI50 (KM12 colon): 19.5 µM | TGI (KM12 colon): 54.2 µM | GI50 (LOX IMVI melanoma): 12.5 µM | TGI (LOX IMVI melanoma): 43.9 µM | GI50 (M14 melanoma): > 100 µM | TGI (M14 melanoma): > 100 µM | GI50 (MALME-3M melanoma): 5.85 µM | TGI (MALME-3M melanoma): > 100 µM | GI50 (MCF7 breast): 39 nM | TGI (MCF7 breast): > 100 µM | GI50 (MDA-MB-231 breast): 25.9 µM | TGI (MDA-MB-231 breast): > 100 µM | GI50 (MDA-MB-435 melanoma): 58.1 µM | TGI (MDA-MB-435 melanoma): > 100 µM | GI50 (MDA-MB-468 breast): 1570 nM | TGI (MDA-MB-468 breast): 10.9 µM | GI50 (MOLT-4 leukemia): 1070 nM
